Experimental data reported in patent publication US4348388A, “11-Amino-11-deoxydaunorubicin and analogs” (G.D. Searle & Co., priority 1980, dated 1982).
≈ marks a conversion by molar mass, not a printed value. Like-named read-outs stand apart in the source and are kept apart here.

Tests used:
L-1210 leukemias = assay: Activity against L-1210 leukemia by oral or intraperitoneal administration; assay type: in vivo
P-388 leukemias = assay: Activity against P-388 leukemia by oral or intraperitoneal administration; assay type: in vivo
L-cells = assay: L-cell cytotoxicity; assay type: cell-based; settings: 48 h
Description: Expotentially growing L-cells were treated with dilutions of Compound XII and adriamycin and ID50 (concentration of compounds giving 50% inhibition of cell growth) measured after 48 hours with the following results.

L-1210 leukemia = assay: Antineoplastic activity against L-1210 leukemia (single i.v. dose, survival vs control mice); assay type: in vivo, BDF1 male mice; settings: single i.v. dose 24 hours after i.v. implant of 10^5 L-1210 cells; at optimum dose (Adriamycin 33.6, Ex. XII 27, 4-Demethoxydaunorubicin 4.5 μmoles/kg); ten mice per group
Description: The antineoplastic activity of the compounds of this invention was first established against L-1210 leukemia. The relative activities against the L-1210 leukemia and the L cell cytotoxicity was determined and compared to that of adriamycin.
Donor mice were implanted with L-1210 leukemia cells i.p. On the sixth day following implant, the mice were sacrificed. Tumor cells were collected from the peritoneal cavity, suspended in saline solution, and 10^5 cells per mouse were implanted i.v. into BDF1 male mice weighing 18-20 grams. Ten mice per treatment group were employed and the day of implantation considered as day 0. A single dose of test compound was administered by i.v. injection 24 hours following the implant of L-1210 tumor cells. The animals were observed and the survival pattern was compared with that of control mice which received the same tumor implant but were not treated with drug. Results are presented as %ILS (increase in life span over control animals) in Table 3 below.

[1] = background; limits use; cited from earlier work
[2] = administered intraperitoneally, compared with intravenous

Row | Compound | activity against L-1210 leukemia (L-1210 leukemias; [2]) | activity against L-1210 leukemia (L-1210 leukemias; administered orally) | activity against P-388 leukemia (P-388 leukemias; [2]) | activity against P-388 leukemia (P-388 leukemias; administered orally) | IC50 (L-cells; Ex. 19, exponentially growing L-cells, read-out: ID50 (concentration of compounds giving 50% inhibition of cell growth)) [µg/mL] | IC50 (L-cells; Ex. 20, exponentially growing L-cells, read-out: ID50 (concentration of compounds giving 50% inhibition of cell growth)) [µg/mL] | % ILS (increase in life span over control animals) (L-1210 leukemia) [%] | Survivors at day 60 (L-1210 leukemia) | cardiac toxicity [1] | IC50 (L-cells; read-out: ID50 (concentration of compounds giving 50% inhibition of cell growth), Ex. 19, exponentially growing L-cells) [µg/mL] | IC50 (L-cells; read-out: ID50 (concentration of compounds giving 50% inhibition of cell growth), Ex. 20, exponentially growing L-cells) [µg/mL]
1 | CC(=O)[C@]1(O)Cc2c(N)c3c(c(O)c2[C@@H](O[C@H]2C[C@H](N)[C@H](O)[C@H](C)O2)C1)C(=O)c1ccccc1C3=O [Compound XII, cis-9-acetyl-11-amino-7S-[(3-amino-2,3,6-trideoxy-α-L-lyxo-hexopyranosyl)oxy]-7,8,9,10-tetrahydro-6,9-dihydroxy-5,12-naphthacenedione chloride] | less active | inactive | less active | inactive | 0.01 | 0.015 | 96 | 0 | – | – | –
2 | COc1cccc2c1C(=O)c1c(O)c3c(c(O)c1C2=O)C[C@@](O)(C(=O)CO)C[C@@H]3O[C@H]1C[C@H](N)[C@H](O)[C@H](C)O1 [Adriamycin] | – | – | – | – | – | – | 100 | 0 | cardiac toxicity | 0.063 (≈ 0.116 µM) | 0.1 (≈ 0.184 µM)
3 | CC(=O)[C@]1(O)Cc2c(O)c3c(c(O)c2[C@@H](O[C@H]2C[C@H](N)[C@H](O)[C@H](C)O2)C1)C(=O)c1ccccc1C3=O [4-Demethoxydaunorubicin] | – | – | – | – | – | – | 83 | 0 | – | – | –
